Results: patent US20220024992A1, “COMPOSITIONS AND METHODS COMPRISING LYSOCINS AS BIOENGINEERED ANTIMICROBIALS FOR USE IN TARGETING GRAM-NEGATIVE BACTERIA” (The Rockefeller University, priority 2018, published 2022)
Values joined by “and” are separate entries in the source; they are usually repeats but may differ in a detail not shown here. Equal entries are not always repeated.

Columns and labels:
P. aeruginosa strain 453 [1] = assay: Transmission electron microscopy of lysocin-treated bacteria; format: cell-based; conditions: 50 μg/ml
Protocol: At 0, 30 and 60 min, an aliquot was removed and fixed with 100 mM sodium cacodylate, pH 7.4, containing 4% (vol/vol) paraformaldehyde and 2% (vol/vol) glutaraldehyde. TEM images were obtained by The Rockefeller University Electron Microscopy Resource Center.

A. baumaneii ATCC 17978 = assay: MIC, modified broth microdilution, CAA medium; format: cell-based
Protocol: (§1) The MIC and MBC values were calculated using a modified version of the broth microdilution assay as previously described by the Clinical and Laboratory Standards Institute (CLSI) (45). The specific modifications were to the bacterial concentration and growth medium used. […] CAA medium was used for Gram-negative bacteria to simulate low iron conditions. Alternatively, MHB was used for Gram-positive bacteria due to their inability to grow in CAA medium. Bacterial growth was assessed by measuring the OD600 nm using a SpectraMax M5 microplate reader (Molecular Devices). The MIC was defined as the lowest antimicrobial concentration that inhibits bacterial growth. To determine the MBC, the contents from each well originating from the MIC microtiter plate was plated on CAA agar to quantitate bacterial viability. The MBC was defined as the lowest antimicrobial concentration required to kill ≥99.9% of the initial bacterial inoculum. Growth and sterility controls were included.

E. cloacae NR-50391 = assay: MIC, modified broth microdilution, CAA medium; format: cell-based
Protocol: as §1

K. pneumoniae NR-41916 = assay: MIC, modified broth microdilution, CAA medium; format: cell-based
Protocol: as §1

E. coli ATCC 25922 = assay: MIC, modified broth microdilution, CAA medium; format: cell-based
Protocol: as §1

P. aeruginosa strain 453 [2] = assay: Dose-response cell viability assay (killing kinetics); format: cell-based; conditions: for reduction in bacterial viability: 0.1-100 μg/ml, CAA medium with EDDHA
Protocol: For the 12 h experiments, 0.01-100 μg/ml of PyS2-GN4 was incubated statically at 37° C. with P. aeruginosa strain 453 at 10^6 CFU/ml in CAA medium with 0.5 mg/ml EDDHA (Complete Green Company). At 2 h increments, an aliquot was removed from each sample, serial diluted and plated on CAA agar to determine viable bacterial counts. For the 24 h experiments, lysocin at 0.1-100 μg/ml was incubated statically at 37° C. with P. aeruginosa strain 453 at 10^6 CFU/ml in either CAA medium or CAA:HuS (1:1) with EDDHA. After 24 h, the samples were serial diluted and plated on CAA agar to assess bacterial viability. An untreated control was used for each data set. All samples were investigated in duplicate.

S. aureus NR-45946 = assay: MIC, modified broth microdilution, MHB; format: cell-based
Protocol: as §1

S. pyogenes D471 = assay: MIC, modified broth microdilution, MHB; format: cell-based
Protocol: as §1

B. cereus RSVF1 = assay: MIC, modified broth microdilution, MHB; format: cell-based
Protocol: as §1

E. faecium EFSK-2 = assay: MIC, modified broth microdilution, MHB; format: cell-based
Protocol: as §1

P. aeruginosa strain 453 [3] = assay: Lysocin thermal stability (residual antipseudomonal activity after heating); format: physicochemical; conditions: 30 min incubation in PBS, then 50 μg/ml for 4 h at 37° C.
Protocol: FIG. 7. Lysocin thermal stability. PyS2-GN4 was incubated in phosphate buffered saline (PBS) for 30 min at temperatures ranging from 4° C. to 80° C. After cooling on ice, each sample at 50 μg/ml was incubated statically with P. aeruginosa strain 453 for a total of 4 h at 37° C. The average residual antipseudomonal activity of each sample was equated to the log10 decrease in viable bacterial cells when compared to the untreated control. All error bars correspond to ±SEM of triplicate experiments.

[4] = tested on: pseudomonal PG (autoclaved P. aeruginosa); assay: Muralytic plate lysis assay on autoclaved Pseudomonas; format: biochemical; conditions: 25 pmol spotted
P. aeruginosa strain 453 [5] = assay: Plate lysis assay using viable Pseudomonas; format: cell-based
Protocol: For determining muralytic activity, 25 pmol of each purified protein sample was spotted on 0.75% (wt/vol) agarose embedded with autoclaved P. aeruginosa in 50 mM Tris-HCl, pH 7.5. […] For elucidating antipseudomonal activity towards viable bacteria, 0.01-400 pmol of each purified protein sample was spotted on 0.75% (wt/vol) agarose comprising P. aeruginonsa strain 453 at an initial concentration of 5×10^6 CFU/ml in either CAA medium or CAA:HuS (1:1; HuS from pooled human male AB plasma, Sigma-Aldrich). Growth inhibition zones observed after 24 h incubation at 37° C. correspond to antipseudomonal activity. Buffer was spotted as a negative control.

P. aeruginosa strain 453 [6] = assay: Cell viability assays with 0.5 μM antimicrobial; conditions: iron-chelated CAA medium
Protocol: P. aeruginosa strain 453 were grown under iron-depleted conditions (see Bacterial Strains and Growth Conditions). The bacteria were harvested, washed and resuspended in fresh CAA medium with 0.5 mg/ml EDDHA. Using a 96-well flat-bottomed microtiter plate, the bacteria at ˜10^6 CFU/ml were incubated statically at 37° C. with either growth medium only (untreated control) or 0.5 μM purified antimicrobial. A 2 h incubation was used for the single time point experiments, whereas a 4 or 6 h incubation was used for the multiple time point assays. At various time points, an aliquot was removed from each sample, serially diluted and plated on CAA agar. After incubating the agar plates for up to 48 h at 37° C., colonies were counted in order to quantitate the CFU/ml concentration of surviving bacterial cells. Modifications were introduced to the aforementioned cell viability assay protocol for the experiment using P. aeruginosa grown in the presence of varying free iron concentrations. First, P. aeruginosa strain 453 were grown using iron-depleted or iron-rich conditions (CAA medium supplemented with 100 μM FeSO4) at 37° C. with aeration for a total of 16-18 h and subsequently assayed for lysocin sensitivity in PBS, pH 7.4. For the experiment analyzing lysocin activity in the presence of lung surfactant or serum, P. aeruginosa were incubated with or without lysocin in beractant ([sequence]; Abbvie) or HuS diluted 1:1 with 20 mM sodium phosphate, pH 7.0.

P. aeruginosa strains = assay: MIC and MBC, modified CLSI broth microdilution, CAA medium; format: cell-based
Protocol: as §1

P. aeruginosa strain 453 [7] = assay: Murine model of bacteremia; format: in vivo, mice; conditions: for protected from death (survival over 10 days): 3 h post-infection
Protocol: A murine model of bacteremia using P. aeruginosa was adapted from previous studies (46-50). Briefly, male 6-week-old C57BL/6 mice (Charles River Laboratories) were IP infected with 10^8 P. aeruginosa strain 453 and then IP treated 3 h post-infection with a single dosage of either PBS or PyS2-GN4 at 2.5-25 mg/kg. Survival was monitored for 10 days. The collective results were obtained from four independent experiments and analyzed by Kaplan-Meier survival curves using GraphPad Prism. The Rockefeller University Institutional Animal Care and Use Committee approved all mouse experiments (protocol 17025).

P. aeruginosa strain 453 [8] = assay: Endotoxin release (chromogenic LAL assay); format: cell-based; conditions: after 4 h treatment, 0.2× and 5×MIC
Protocol: Endotoxin Release P. aeruginosa strain 453 at 10^6 CFU/ml was treated with 0.2× and 5×MIC PyS2-GN4, colistin, meropenem or tobramycin in CAA medium for either 1 or 4 h at 37° C. The samples were subsequently centrifuged at 2,000×g for 10 min. The supernatant was collected and passed through a 0.2 μm syringe filter. Endotoxin concentration in the filtered supernatant was quantitated using the ToxinSensor Chromogenic LAL Endotoxin Assay Kit (GenScript). All data was depicted as the mean±SEM of duplicate experiments.

## PyS2-GN4: lysocin: PyS2 domains I-III, with domain IV (aa 559-689) deleted and replaced by the GN4 lysin (aa 1-144); 76 kDa
P. aeruginosa strain 453 [1]; 30 min post-treatment
  bacterial morphology by TEM: transitioned from rod-shaped to a more spherical morphology
P. aeruginosa strain 453 [1]; 60 min post-treatment
  bacterial morphology by TEM: intact, nonviable cells either lacking or with noticeably reduced cytoplasmic content
A. baumaneii ATCC 17978
  MIC: >256 µg/mL
E. cloacae NR-50391
  MIC: >256 µg/mL
K. pneumoniae NR-41916
  MIC: >256 µg/mL
E. coli ATCC 25922
  MIC: >256 µg/mL
P. aeruginosa strain 453 [2]; 2 h
  reduction in bacterial viability: ~2 log10
P. aeruginosa strain 453 [2]; 4 h
  reduction in bacterial viability: ~3 log10
P. aeruginosa strain 453 [2]; 12 h
  reduction in bacterial viability: ~4 log10
P. aeruginosa strain 453 [2]; 24 h, CAA medium and 50% HuS
  lysocin concentration that sterilized the bacterial culture: 10 μg/ml and 132 nM
P. aeruginosa strain 453 [2]; after 4 h
  concentration at which bactericidal: 0.1 µg/mL
S. aureus NR-45946
  MIC: >256 µg/mL
S. pyogenes D471
  MIC: >256 µg/mL
B. cereus RSVF1
  MIC: >256 µg/mL
E. faecium EFSK-2
  MIC: >256 µg/mL
P. aeruginosa strain 453 [3]
  temperature at which bactericidal activity was fully retained: 45 °C
[4]
  muralytic activity (clearing zones) on autoclaved P. aeruginosa: degraded Pseudomonas PG
P. aeruginosa strain 453 [5]; 50% HuS
  amount spotted at which activity could be observed: 0.13 pmol
P. aeruginosa strain 453 [5]; growth medium (CAA)
  amount spotted at which antipseudomonal activity was displayed: 0.64 pmol
P. aeruginosa strain 453 [6]; 3 h
  decrease in pseudomonal viability: 3.1 log10
P. aeruginosa strain 453 [6]; duration of the experiment (6 h)
  viable bacterial cells relative to limit of detection (10 CFU/ml): incapable of lowering the number of viable bacterial cells to the limit of detection
P. aeruginosa strains; strain 452, FpvA type I
  MIC: 4 µg/mL
P. aeruginosa strains; strain 453, FpvA type I
  MBC: 0.25 µg/mL
  MIC: 0.25 µg/mL
P. aeruginosa strains; strain MDR-M-3, FpvA type I
  MIC: 2 µg/mL
P. aeruginosa strains; strain PAO1, FpvA type I
  MIC: 2 µg/mL
P. aeruginosa strains; towards strain PAO1 and the 452, 453 and MDR-M-3 clinical isolates
  MIC values: ≤ 4 µg/mL
P. aeruginosa strain 453 [7]; 2.5 mg/kg IP
  protected from death (survival over 10 days): 73%
P. aeruginosa strain 453 [7]; 5 mg/kg IP
  protected from death (survival over 10 days): 80%
P. aeruginosa strain 453 [7]; 12.5 mg/kg IP
  protected from death (survival over 10 days): 93%
P. aeruginosa strain 453 [7]; 25 mg/kg IP
  protected from death (survival over 10 days): 100%
P. aeruginosa strain 453 [7]; day 10
  Pseudomonas in organs of surviving mice: did not contain detectable Pseudomonas
P. aeruginosa strain 453 [8]
  endotoxin release, fold less than meropenem and tobramycin: ~100 fold
